Measured values taken from patent US20250145665A1, “MACROCYCLIC PEPTIDES USEFUL AS MODULATORS OF TNF ALPHA” (Bristol-Myers Squibb Company, priority 2023, published 2025).
Read-outs that look alike come from different tables or passages of the source. Starred links: 1 amine or outer side, 2 acyl side, 3 side chain; linkers in the order of their positions; H or OH if unused. Positions of bridges follow the written chain, without caps; N, C: chain ends. Non-standard residues stand in square brackets, D forms with d. Residues, ends and D or L forms follow the SMILES beside them. *: point of attachment. Bip(4'-NHCO-C6H4-3-CH2COOH) = N[C@@H](Cc1ccc(-c2ccc(NC(=O)c3cccc(CC(=O)O)c3)cc2)cc1)C(=O)O; Bip(4'-NHCO-C6H4-4-CH2COOH) = N[C@@H](Cc1ccc(-c2ccc(NC(=O)c3ccc(CC(=O)O)cc3)cc2)cc1)C(=O)O; dArg(ω-(2S)-2,3-diOHpropyl) = N=C(NCCC[C@@H](N)C(=O)O)NC[C@H](O)CO; Bip(4'-NH) = O=C([C@H](Cc1ccc(-c2ccc(N[*:3])cc2)cc1)N[*:1])[*:2]; dArg(ω-(3-HO-benzyl)) = N=C(NCCC[C@@H](N)C(=O)O)NCc1cccc(O)c1; Indazole3carbonyl(1-CH2COOH) = O=C(O)Cn1nc(C(=O)*)c2ccccc21; Bip(4'-COOH) = N[C@@H](Cc1ccc(-c2ccc(C(=O)O)cc2)cc1)C(=O)O; Indole3carbonyl(1-CH2COOH) = O=C(O)Cn1cc(C(=O)*)c2ccccc21; Ala(imidazol-2-yl) = N[C@@H](Cc1ncc[nH]1)C(=O)O; Ala(morpholin-4-yl) = N[C@@H](CN1CCOCC1)C(=O)O; Benzoyl(3-OCH2COOH) = O=C(O)COc1cccc(C(=O)*)c1; Phe(3-CONH2) = NC(=O)c1cccc(C[C@H](N)C(=O)O)c1; Bip = N[C@@H](Cc1ccc(-c2ccccc2)cc1)C(=O)O; 2Pal = N[C@@H](Cc1ccccn1)C(=O)O; Cha = N[C@@H](CC1CCCCC1)C(=O)O; Sar = CNCC(=O)O

Target: TNFα (Homo sapiens, UniProt P01375)
Assay: TNF-Induced HEK-Blue Assay
Type: cell-based
[1] = HEK-Blue-CD40L cells, NF-kB-driven secreted alkaline phosphatase reporter, TNFα 0.5 ng/ml, 18 h, read-out: TNF induced HEK-Blue assay IC50 value

TNFα, sequence (P01375 77-233 limits assumed): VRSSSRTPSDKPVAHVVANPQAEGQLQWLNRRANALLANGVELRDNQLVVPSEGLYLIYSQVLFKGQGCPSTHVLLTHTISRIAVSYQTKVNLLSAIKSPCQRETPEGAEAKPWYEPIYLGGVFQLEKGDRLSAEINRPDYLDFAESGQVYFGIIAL

Compound	IC50 [1]	IC50
CC(C)C[C@@H]1NC(=O)[C@H](Cc2ncc[nH]2)NC(=O)[C@H](C(C)C)NC(=O)[C@@H]2CCCN2C(=O)[C@H](C(C)C)NC(=O)[C@@H](CCCNC(=N)NCc2cccc(O)c2)NC(=O)[C@H](CC(=O)O)NC(=O)[C@H](Cc2ccccn2)NC(=O)CN(C)C(=O)[C@H](Cc2ccc(-c3ccc(NC(=O)c4nn(CC(=O)O)c5ccccc45)cc3)cc2)NC(=O)[C@H](Cc2ccc(-c3ccc(C(=O)O)cc3)cc2)NC(=O)[C@H](CC2CCCCC2)NC(=O)CSC[C@@H](C(=O)NCC(N)=O)NC1=O [Example 551] ({CH2CO}-[Cha][Bip(4'-COOH)][Bip(4'-NH)](Indazole3carbonyl(1-CH2COOH))[Sar][2Pal]D[dArg(ω-(3-HO-benzyl))]VPV[Ala(imidazol-2-yl)]LCG-NH2; thioether N-13)	–	< 50 nM
CC(C)C[C@@H]1NC(=O)[C@H](Cc2ncc[nH]2)NC(=O)[C@H](C(C)C)NC(=O)[C@@H]2CCCN2C(=O)[C@H](C(C)C)NC(=O)[C@@H](CCCNC(=N)NCc2cccc(O)c2)NC(=O)[C@H](CC(=O)O)NC(=O)[C@H](Cc2ccccn2)NC(=O)CN(C)C(=O)[C@H](Cc2ccc(-c3ccc(NC(=O)c4cn(CC(=O)O)c5ccccc45)cc3)cc2)NC(=O)[C@H](Cc2ccc(-c3ccc(C(=O)O)cc3)cc2)NC(=O)[C@H](CC2CCCCC2)NC(=O)CSC[C@@H](C(=O)NCC(N)=O)NC1=O [Example 552] ({CH2CO}-[Cha][Bip(4'-COOH)][Bip(4'-NH)](Indole3carbonyl(1-CH2COOH))[Sar][2Pal]D[dArg(ω-(3-HO-benzyl))]VPV[Ala(imidazol-2-yl)]LCG-NH2; thioether N-13)	–	50 to 200 nM

The next lines start with results.

IC50 [1]	Compound	IC50
50 to 200 nM	CC(C)C[C@@H]1NC(=O)[C@H](Cc2cccc(C(N)=O)c2)NC(=O)[C@H](C(C)C)NC(=O)[C@@H]2CCCN2C(=O)[C@H](C(C)C)NC(=O)[C@@H](CCCNC(=N)NC[C@H](O)CO)NC(=O)[C@H](CC(=O)O)NC(=O)[C@H](Cc2ccc(O)cc2)NC(=O)CN(C)C(=O)[C@H](Cc2ccc(-c3ccc(NC(=O)c4ccc(CC(=O)O)cc4)cc3)cc2)NC(=O)[C@H](Cc2ccc(-c3ccccc3)cc2)NC(=O)[C@H](CN2CCOCC2)NC(=O)CSC[C@@H](C(=O)NCC(N)=O)NC1=O [Example 548] ({CH2CO}-[Ala(morpholin-4-yl)][Bip][Bip(4'-NHCO-C6H4-4-CH2COOH)][Sar]YD[dArg(ω-(2S)-2,3-diOHpropyl)]VPV[Phe(3-CONH2)]LCG-NH2; thioether N-13)	–
50 to 200 nM	CC(C)C[C@@H]1NC(=O)[C@H](Cc2cccc(C(N)=O)c2)NC(=O)[C@H](C(C)C)NC(=O)[C@@H]2CCCN2C(=O)[C@H](C(C)C)NC(=O)[C@@H](CCCNC(=N)NC[C@H](O)CO)NC(=O)[C@H](CC(=O)O)NC(=O)[C@H](Cc2ccc(O)cc2)NC(=O)CN(C)C(=O)[C@H](Cc2ccc(-c3ccc(NC(=O)c4cccc(CC(=O)O)c4)cc3)cc2)NC(=O)[C@H](Cc2ccc(-c3ccccc3)cc2)NC(=O)[C@H](CN2CCOCC2)NC(=O)CSC[C@@H](C(=O)NCC(N)=O)NC1=O [Example 549] ({CH2CO}-[Ala(morpholin-4-yl)][Bip][Bip(4'-NHCO-C6H4-3-CH2COOH)][Sar]YD[dArg(ω-(2S)-2,3-diOHpropyl)]VPV[Phe(3-CONH2)]LCG-NH2; thioether N-13)	–
50 to 200 nM	CC(C)C[C@@H]1NC(=O)[C@H](Cc2cccc(C(N)=O)c2)NC(=O)[C@H](C(C)C)NC(=O)[C@@H]2CCCN2C(=O)[C@H](C(C)C)NC(=O)[C@@H](CCCNC(=N)NC[C@H](O)CO)NC(=O)[C@H](CC(=O)O)NC(=O)[C@H](Cc2ccc(O)cc2)NC(=O)CN(C)C(=O)[C@H](Cc2ccc(-c3ccc(NC(=O)c4cccc(OCC(=O)O)c4)cc3)cc2)NC(=O)[C@H](Cc2ccc(-c3ccccc3)cc2)NC(=O)[C@H](CN2CCOCC2)NC(=O)CSC[C@@H](C(=O)NCC(N)=O)NC1=O [Example 550] ({CH2CO}-[Ala(morpholin-4-yl)][Bip][Bip(4'-NH)](Benzoyl(3-OCH2COOH))[Sar]YD[dArg(ω-(2S)-2,3-diOHpropyl)]VPV[Phe(3-CONH2)]LCG-NH2; thioether N-13)	–
